Test results: article PMC3600304, “Inhibitors of Fatty Acid Synthesis Induce PPARα-Regulated Fatty Acid β-Oxidative Genes: Synergistic Roles of L-FABP and Glucose” (PPAR Research, 2013)

Tests used:
[1] = system: mouse primary hepatocytes; test: Hepatocyte unesterified (free) LCFA determination; type: cell-based; conditions: normal physiological glucose (6 mM), inhibitor 10 μg/mL
Description: (§1) Mouse hepatocytes were isolated from livers of male wild-type and L-FABP null mice as described. To study the effect of TOFA and C75 at different glucose levels, mouse hepatocytes were cultured overnight with DMEM/F-12 supplemented with 5% FBS. Cells were incubated with glucose-free DMEM supplemented with fatty acid-free BSA (40 μM), 100 nM insulin, 10 nM dexamethasone, and without (no inhibitor) or with the de novo fatty acid synthesis inhibitors C75 or TOFA (10 μg/mL) for 30 min (1 mL/well). Cells were incubated further for 5 hr with 6 or 20 mM glucose without or with the inhibitors.
Cultured mouse hepatocytes were plated 4 × 10^5 cells per well in 12-well tissue culture plates. After incubation with TOFA or C75 at different glucose levels as described previously, hepatocytes were washed with cold PBS 4x, scraped with cold PBS (with protease inhibitor), and homogenized with a probe sonicator (Sonic Dismembrator 550, Fisher Scientific, Waltham, MA, USA). A 20 μL sample was saved for protein analysis using the Bio-Rad protein assay reagent, (Bio-Rad, Hercules, CA, USA). […]
The LCFA content of each sample was measured with the Free Fatty Acid Quantification Kit from BioVision, Inc. (Mountain View, California, USA) according to manufacturer's instructions, using a standard of palmitic acid included in the kit. […]

[2] = system: CPT1A; set-up: method as in PMID 39932, PMID 4051503, PMID 12060712, PMID 502765; conditions: rat hepatocytes, media with high glucose (11 mM); cited from earlier work
[3] = system: PPARα transcription of CPT1A, CPT2, ACOX1; test: rtPCR of CPT1A, CPT2, ACOX1 mRNA in L-FABP (−/−) null mouse primary hepatocytes; type: cell-based; conditions: for PPARα transcription of CPT1A, CPT2, ACOX1 (mRNA): 6 mM glucose; for PPARα transcription of CPT1A, CPT2, ACOX1 (mRNA) / Ability to activate PPARα transcription of CPT1A, CPT2, ACOX1 (mRNA): inhibitor 10 μg/mL, 5 hr
From the text: Wild-type mice on a C57BL/6N background purchased from Charles River Laboratories (Wilmington, MA, USA) were obtained from the National Cancer Institute (Frederick Cancer Research and Development Center, Frederick, MD, USA). L-FABP (−/−) null mice were obtained by targeted disruption of the L-FABP gene and backcrossed to C57Bl/6N background to the N10 (99.9% homogeneity) generation. For hepatocyte isolation, livers were collected from male mice aged 3–6 mo. Mouse protocols were approved by the Institutional Animal Care and Use Committee (IACUC) at Texas A&M University. Mice were kept under a constant 12/12 light-dark cycle and had access to food and water ad libitum.
as §1
Transcription of key enzymes in mitochondrial (CPT1A and CPT2) and peroxisomal (ACOX1) β-oxidation of long chain fatty acid (LCFA) was determined by rtPCR similarly as described. Briefly, the RNeasy mini kit from Qiagen Sciences (MD, USA) was used as per the manufacturer's instructions to isolate total RNA, which was then quantified spectrophotometrically. Quantitative real-time PCR was performed with an ABI PRISM 7000 Sequence Detection System (SDS) from Applied Biosystems (Foster City, CA, USA) to determine relative mRNA expression for CPT1A, CPT2, and ACOX1. The thermal protocol was as follows: 48°C for 30 min, 95°C for 10 min before the first cycle, 95°C for 15 sec, and 60°C for 60 sec, repeated 40 times. TaqMan One-Step Master Mix and Gene Expression Assays for mouse CPT1A (Mm 00550438_m1), CPT2 (Mm 00487202_m1), and ACOX1 (Mm 00443579_m1) were purchased from Applied Biosystems (Life Technologies, Carlsbad, CA, USA). Triplicates of each sample were analyzed with ABI PRISM 7000 SDS software (Applied Biosystems) to determine ΔCt relative to a positive control (18S housekeeping gene). The fold change in the abundance of CPT1A, CPT2, and ACOX1 mRNAs was determined in primary mouse hepatocytes treated with albumin (40 μM) in the absence and presence of lipid synthesis inhibitors (C75, TOFA, 10 μg/mL) in glucose-free DMEM medium supplemented with 100 nM insulin, 10 nM dexamethasone, and either 6 or 20 mM glucose. The comparative 2^−ΔΔCt calculation method was used as described in User Bulletin 2, ABI Prism 7000 SDS (Applied Biosystems), and earlier. Finally, protein levels of liver fatty acid binding protein (L-FABP), sterol carrier protein-2 (SCP-2), acyl CoA binding protein (ACBP), peroxisome proliferator activated receptor (PPARα), liver X receptor-α (LXRα), carbohydrate response element binding protein (ChREBP), and sterol response element binding protein (SREBP) were determined by western blotting as described.

[4] = target: T1, SCP-2 (Homo sapiens, UniProt P22307); test: Displacement of SCP-2-bound NBD-stearic acid; type: binding
T1 construct: made in house
T1 sequence (P22307 1-143 isoform P22307-2): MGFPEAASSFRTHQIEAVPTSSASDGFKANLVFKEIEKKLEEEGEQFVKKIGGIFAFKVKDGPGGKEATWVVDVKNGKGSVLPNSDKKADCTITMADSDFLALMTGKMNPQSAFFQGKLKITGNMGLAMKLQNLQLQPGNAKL
Description: Advantage was taken of the fact that NBD-stearic acid bound to L-FABP (two ligand binding sites) as well as SCP-2 (single-ligand binding site) to design a NBD-stearic acid displacement assay that allowed determination of which fatty acid synthesis inhibitors or their CoA thioesters bound to these LCFA/LCFA-CoA binding proteins. Displacement of NBD-stearate from L-FABP and SCP-2 was determined by incubating L-FABP or SCP-2 (25 nM in 10 mM phosphate buffer) with NBD stearate (40 nM) for 12 min to obtain maximal fluorescence, followed by titration with increasing amount of ligand. From the displacement curve, the K i value was calculated as described. All experiments were carried out with a thermostated cuvette to maintain temperature at 24°C using a circulating water bath. ANS displacement assay was performed as described.

[5] = target: T2, L-FABP (Rattus norvegicus, UniProt P02692); test: L-FABP tyrosine fluorescence quenching; type: binding; conditions: L-FABP 100 nM
T2 construct: made in house
T2 sequence (P02692 1-127): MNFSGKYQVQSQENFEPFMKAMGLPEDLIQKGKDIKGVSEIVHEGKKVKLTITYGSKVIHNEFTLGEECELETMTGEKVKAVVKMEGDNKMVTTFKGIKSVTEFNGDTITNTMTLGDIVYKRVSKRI
Description: Tyrosine fluorescence of L-FABP (100 nM) in 10 mM phosphate buffer was monitored by scanning from 290 to 400 nm, with excitation wavelength 280 nm, before and after small increments of added binding ligand. The binding curve was constructed by plotting tyrosine fluorescence intensity at 305 nm versus concentration of the ligand. K d was then calculated as described.

| Displacement of NBD-stearic acid bound to SCP-2 (in words) [4] | K i, displacing SCP-2-bound NBD-stearic acid ([4]; SCP-2 25 nM, NBD stearate 40 nM, 24°C) | Quenching of L-FABP tyrosine emission (in words) [5] | Kd ([5]; 10 mM phosphate buffer, read-out: K d by L-FABP tyrosine quenching (converted)) | Ki ([4]; SCP-2 25 nM, NBD stearate 40 nM, 24°C, read-out: K i, displacing SCP-2-bound NBD-stearic acid) | SMILES | Unesterified fatty acid level [1] | CPT1A activity and fatty acid oxidation [2] | PPARα transcription of CPT1A, CPT2, ACOX1 (mRNA) [3] | Ability to activate PPARα transcription of CPT1A, CPT2, ACOX1 (mRNA) ([3]; 20 mM glucose) | Decrease of PPARα transcription of CPT1A, CPT2, or ACOX1 ([3]; 20 mM glucose, TOFA 10 μg/mL) |
| --- | --- | --- | --- | --- | --- | --- | --- | --- | --- | --- |
| barely detectable | not bound^(a) |  |  |  | C=C1C(=O)OC(CCCCCCCC)C1C(=O)O (centres unmarked) [C75, 4-methylene-2-octyl-5-oxotetrahydrofuran-3-carboxylic acid] | Neither TOFA nor C75 significantly impacted | increased | lack of effect | abolished |  |
|  |  | efficiently quenched | 57 nM | 227 ± 20 nM | CCCCCCCCCCCCCCOc1ccc(C(=O)O)o1 [TOFA, 5-tetradecyloxy-2-furancarboxylic acid] | Neither TOFA nor C75 significantly impacted | increased | lack of effect | abolished | ~50% |
